Assay results: patent publication US4143032A, “Hexapeptides having analgesic activities” (American Home Products Corporation, priority 1977, dated 1979)
Non-standard residues stand in square brackets, D forms with d. Residues, ends and D or L forms follow the SMILES beside them.

Experiments:
rats [1] = assay: rat-tail flick method of D'Amour and Smith (analgesic activity); type: in vivo; conditions: single dose
Method: In this procedure, a single intravenous dose of from 0.5 to 20 mg/kg., will produce analgesia in the rat. Preferably, a dose of from 1 to 10 mg/kg. is employed. The exact dose to be employed will vary depending on the particular compound employed and the degree of analgesia desired. The determination of the precise dose to produce the desired effect will be readily ascertained by those skilled in the art. With representative compound H-Arg-Tyr-D-Ala-Gly-Phe-D-Leu-NH2, the following results were obtained: […]

guinea pig ileum = conditions: cited from earlier work
rats [2] = conditions: injection in the brain ventricle in rats; fully reversible by naloxone; cited from earlier work
mouse vas deferens = conditions: cited from earlier work
opiate receptor = conditions: brain homogenates; cited from earlier work
[3] = peripheral administration, for example intravenous; cited from earlier work
[4] = administered intracerebroventricularly; cited from earlier work

| Compound | No. Showing Analgesic/No. Tested (rats [1]; 1.0 mg/kg. i.v.) | No. Showing Analgesic/No. Tested (rats [1]; 2.5 mg/kg. i.v.) | No. Showing Analgesic/No. Tested (rats [1]; 5 mg/kg. i.v.) | ability to block electrically evoked contractions (guinea pig ileum) | analgesia (rats [2]) | ability to block electrically evoked contractions (mouse vas deferens) | inhibition of stereospecific receptor binding of 3H-naloxone (opiate receptor) | peripheral activity [3] | activity [4] |
| --- | --- | --- | --- | --- | --- | --- | --- | --- | --- |
| CC(=O)O.CC(=O)O.CC(C)C[C@@H](NC(=O)[C@H](Cc1ccccc1)NC(=O)CNC(=O)[C@@H](C)NC(=O)[C@H](Cc1ccc(O)cc1)NC(=O)[C@@H](N)CCCNC(=N)N)C(N)=O [H-Arg-Tyr-D-Ala-Gly-Phe-D-Leu-NH2, L-Arginyl-L-Tyrosyl-D-Alanyl-Glycyl-L-Phenylalanyl-D-Leucyl Amide Diacetate] (H-RY[dA]GF[dL]-NH2) | 2/6 | 2/6 | 6/6 |  |  |  |  |  |  |
| H-Tyr-Gly-Gly-Phe-Leu-OH [leucine-enkephalin] |  |  |  | block electrically evoked contractions | induce a profound analgesia | block electrically evoked contractions | inhibit the stereospecific receptor binding | inactive peripherally |  |
| H-Tyr-Gly-Gly-Phe-Met-OH [methionine-enkephalin] |  |  |  | block electrically evoked contractions | induce a profound analgesia | block electrically evoked contractions | inhibit the stereospecific receptor binding | inactive peripherally |  |
| Tyr-D-Ala-Gly-Phe-D-Leu |  |  |  |  |  |  |  |  | activity |
